The logP is the decadic logarithm of the partition coefficient of the neutral form, usually between octanol and water.

In brackets after ≈: the same amount, converted by molar mass.

Consider 24 molecules from ChEMBL document CHEMBL3232935, “Design, synthesis and evaluation of 1,2,3-triazole-adamantylacetamide hybrids as potent inhibitors of Mycobacterium tuberculosis” (Bioorg Med Chem Lett, 2014).

For data set [1], the system named is Mycobacterium tuberculosis. In words: microbe, parasite or virus in culture. It counts as functional. The settings on record: H37Rv ATCC 27294, 672 h.
Description: Antitubercular activity against Mycobacterium tuberculosis H37Rv ATCC 27294 after 28 days by agar dilution method
A short description of data set [2]: Lipophilicity, log P of the compound. It counts as physicochemical. The following applies: octanol/water.
Data set [3] is described as follows: Selectivity index, ratio of cytotoxicity against HEK293T cells to antitubercular activity against Mycobacterium tuberculosis H37Rv ATCC 27294. It is filed as toxicity, cell-based, HEK-293T. The settings on record: human, read-out: Selectivity Index.
Data set [4] is described as follows: Cytotoxicity against HEK293T cells at 50 ug/ml after 72 hrs by MTT assay. It counts as cell-based, HEK-293T. The following applies: human, read-out: INH.

Take `CCCCCc1cn(CC(=O)NC23CC4CC(CC(C4)C2)C3)nn1`: in data set [1], the MIC was 50 µg/mL (≈ 151 µM). The same molecule gave a lipophilicity (logP) in data set [2] of 3.1.
In the same order, the values of `O=C(Cn1cc(C2(O)CCCC2)nn1)NC12CC3CC(CC(C3)C1)C2` are 50 µg/mL (≈ 145 µM) and 1.51.
Consider `CC(C)(C)c1ccc(-c2cn(CC(=O)NC34CC5CC(CC(C5)C3)C4)nn2)cc1`, for which the MIC in data set [1] came to 50 µg/mL (≈ 127 µM). The molecule also showed a logP in data set [2] of 4.46.
In data set [1], `CCCCCc1ccc(-c2cn(CC(=O)NC34CC5CC(CC(C5)C3)C4)nn2)cc1` had an MIC of 6.25 µg/mL (≈ 15.4 µM). The logP in data set [2] stood at 4.91. The selectivity ratio in data set [3] was over 15. The cytotoxicity at 72 h, 50 ug/ml in data set [4] is 18.7%.
In the same order, the values of `O=C(Cn1cc(CCCO)nn1)NC12CC3CC(CC(C3)C1)C2` are 6.25 µg/mL (≈ 19.6 µM), 0.61, over 15 and 20.7%.
In turn, `CCCCc1cn(CC(=O)NC23CC4CC(CC(C4)C2)C3)nn1` came in with an MIC in data set [1] of 50 µg/mL (≈ 158 µM). Besides, the logP in data set [2] was determined as 2.68.
In data set [1], `O=C(Cn1cc(-c2cc3ccccc3c3ccccc23)nn1)NC12CC3CC(CC(C3)C1)C2` came in with an MIC of 3.12 µg/mL (≈ 7.15 µM). This molecule registered a logP in data set [2] of 4.75. In addition, in data set [3], the selectivity ratio is over 15. Further, the cytotoxicity at 72 h, 50 ug/ml in data set [4] was 20.1%.
On to `CC(=O)c1ccc(C)cc1OCc1cn(CC(=O)NC23CC4CC(CC(C4)C2)C3)nn1`, for which the MIC in data set [1] worked out at 50 µg/mL (≈ 118 µM). In data set [2], this molecule came in with a logP of 2.55.
On to `NNC(=O)c1ccncc1` [ISONIAZID], for which the MIC in data set [1] came out at 0.1 µg/mL (≈ 0.729 µM).
The molecule `O=C(Cn1cc(CCc2ccccc2)nn1)NC12CC3CC(CC(C3)C1)C2` had an MIC in data set [1] of 50 µg/mL (≈ 137 µM). Also, in data set [2], the logP was 3.03.
For the molecule `O=C(Cn1cc(-c2ccc(C(F)(F)F)cc2)nn1)NC12CC3CC(CC(C3)C1)C2`, the MIC in data set [1] came to 50 µg/mL (≈ 124 µM). The logP in data set [2] was determined as 3.68.
For `COc1ccc(-c2cn(CC(=O)NC34CC5CC(CC(C5)C3)C4)nn2)c(C)c1`, in that order: 50 µg/mL (≈ 131 µM) and 3.12.
`O=C(Cn1cc(-c2ccccc2)nn1)NC12CC3CC(CC(C3)C1)C2`: the MIC in data set [1] stood at 50 µg/mL (≈ 149 µM). Besides, the logP in data set [2] came to 2.75.
In the same order, the values of `O=C(Cn1cc(-c2ccc(Cl)c(Cl)c2)nn1)NC12CC3CC(CC(C3)C1)C2` are 50 µg/mL (≈ 123 µM) and 3.87.
For `O=C(Cn1cc(-c2ccsc2)nn1)NC12CC3CC(CC(C3)C1)C2`, the MIC in data set [1] worked out at 50 µg/mL (≈ 146 µM). Moreover, the lipophilicity (logP) in data set [2] was 2.74.
Regarding `O=C(Cn1cc(-c2ccc(F)cc2F)nn1)NC12CC3CC(CC(C3)C1)C2`, the MIC in data set [1] is 50 µg/mL (≈ 134 µM). In data set [2], this molecule yielded a logP of 3.07.
In data set [1], `O=C(Cn1cc(-c2ccc(F)c(F)c2)nn1)NC12CC3CC(CC(C3)C1)C2` came in with an MIC of 50 µg/mL (≈ 134 µM). In data set [2], the logP was determined as 3.07.
Turning to `O=C(Cn1cc(C2(O)CCCCC2)nn1)NC12CC3CC(CC(C3)C1)C2`, the MIC in data set [1] turned out to be 6.25 µg/mL (≈ 17.4 µM). In data set [2], this molecule displayed a log partition coefficient (logP) of 1.93. The selectivity ratio in data set [3] was over 15. In addition, in data set [4], the cytotoxicity at 72 h, 50 ug/ml was found to be 17.5%.
In data set [1], `COc1ccc2cc(-c3cn(CC(=O)NC45CC6CC(CC(C6)C4)C5)nn3)ccc2c1` came in with an MIC of 50 µg/mL (≈ 120 µM). Moreover, the logP in data set [2] came out at 3.63.
`NC(=O)c1cnccn1` [PYRAZINAMIDE] came in with an MIC in data set [1] of 50 µg/mL (≈ 406 µM).
In data set [1], `CCCCCCc1cn(CC(=O)NC23CC4CC(CC(C4)C2)C3)nn1` had an MIC of 50 µg/mL (≈ 145 µM). For the same molecule, the logP in data set [2] amounted to 3.52.
`O=C(Cn1cc(-c2ccc([N+](=O)[O-])cc2)nn1)NC12CC3CC(CC(C3)C1)C2` came in with an MIC in data set [1] of 50 µg/mL (≈ 131 µM).
Molecule `COc1cccc(-c2cn(CC(=O)NC34CC5CC(CC(C5)C3)C4)nn2)c1` yielded an MIC in data set [1] of 25 µg/mL (≈ 68.2 µM). In addition, in data set [2], the logP was 2.63.
`CC[C@@H](CO)NCCN[C@@H](CC)CO` [ETHAMBUTOL] yielded an MIC in data set [1] of 3.13 µg/mL (≈ 15.3 µM).
